In paper PMC5681660, “Reduced hepatitis B and D viral entry using clinically applied drugs as novel inhibitors of the bile acid transporter NTCP” (Scientific Reports, 2017):
Structures can show the parent of a compound that is named as a salt. Where two headings read alike, the source gives them in different places.

Tests used:
[1] = target: T1, human NTCP (Homo sapiens, UniProt Q14973); assay: Screening fluorescent competitive Myrcludex B-FITC binding assay (96-well, 10 µM drug)
T1 sequence (Q14973 1-349): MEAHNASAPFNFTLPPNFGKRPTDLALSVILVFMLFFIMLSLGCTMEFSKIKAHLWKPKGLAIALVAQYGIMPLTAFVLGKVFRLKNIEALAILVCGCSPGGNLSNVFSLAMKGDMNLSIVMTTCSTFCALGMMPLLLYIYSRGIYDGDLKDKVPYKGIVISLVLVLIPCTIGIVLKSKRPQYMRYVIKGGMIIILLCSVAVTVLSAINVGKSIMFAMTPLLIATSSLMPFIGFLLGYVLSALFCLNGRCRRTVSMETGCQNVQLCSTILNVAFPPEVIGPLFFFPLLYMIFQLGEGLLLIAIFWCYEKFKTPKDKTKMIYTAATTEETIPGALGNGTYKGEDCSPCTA

[2] = target: T1, human NTCP; assay: Screening taurocholate uptake assay (96-well, [14C]taurocholate, 10 µM drug); conditions: for position among the hits of the screen (combined ranking of both screening assays): 1280 drugs at 10 µM, TC uptake and Myrcludex B binding screens combined
[3] = ranking over the functional and the binding screening assay
[4] = screening taurocholate uptake, 10 µM drug
[5] = combined ranking of functional and binding screening assays

Compound: CC(C)NC[C@@H](O)COc1ccc(CC(N)=O)cc1 [(R)-(+)-Atenolol]
- B-score binding assay ([1]; Prestwick library screen, Myrcludex B-FITC binding, 10 µM drug): 0.009
- B-score functional assay ([2]; Prestwick library screen, taurocholate uptake, 10 µM drug): 0.006
- Ranking score ([2]; ranking score beside the functional and binding assay B-scores of the screen): 655.981

Compound: CNCC[C@@H](Oc1cccc2ccccc12)c1cccs1.Cl [(R)-Duloxetine hydrochloride]
- B-score binding assay [1]: -0.619
- B-score functional assay [2]: 1.079
- Ranking score [2]: 610.37

Compound: C[C@H](CCC(=O)O)[C@H]1CC[C@H]2[C@@H]3[C@@H](O)C[C@@H]4C[C@H](O)CC[C@]4(C)[C@H]3CC[C@]12C [Urosiol]
- Ranking score [2, 3]: 126.965
- B-score functional assay [2, 4]: -4.542

Compound: CC(C)[C@H](N)C(=O)OCCOCn1cnc2c(=O)[nH]c(N)nc21 [Valacyclovir hydrochloride]
- Ranking score [2, 5]: 518.986
- B-score functional assay [2, 4]: 0.32

Compound: CCCc1nc(C)c2c(=O)[nH]c(-c3cc(S(=O)(=O)N4CCN(CC)CC4)ccc3OCC)nn12 [Vardenafil]
- Ranking score [2, 5]: 546.31
- B-score functional assay [2, 4]: -0.039

Compound: Clc1ccc(Nc2nnc(Cc3ccncc3)c3ccccc23)cc1 [Vatalanib]
- Ranking score [2, 3]: 181.191
- B-score functional assay [2, 4]: -2.979

Compound: COc1ccc(C(CN(C)C)C2(O)CCCCC2)cc1 (centres unmarked) [Venlafaxine]
- Ranking score ([2]; combined ranking from functional and binding screening assays): 459.852
- B-score functional assay ([2]; screen, 10 µM drug, taurocholate uptake): -0.102

Compound: O=C(CCCCCCC(=O)Nc1ccccc1)NO [Vorinostat]
- Ranking score [2, 5]: 583.003
- B-score functional assay [2, 4]: -0.284

Compound: COC(=O)[C@@H]1[C@H]2C[C@H]3c4[nH]c5ccccc5c4CCN3C[C@@H]2CC[C@@H]1O [Yohimbine hydrochloride]
- Ranking score [2, 3]: 229.785
- B-score functional assay [2, 4]: -1.965

Compound: CCN(C(C)=O)c1cccc(-c2ccnc3c(C#N)cnn23)c1 [Zaleplon]
- Ranking score [2, 5]: 584.018
- B-score functional assay [2, 4]: 1.229

Compound: CCCOc1ccccc1-c1nc2nn[nH]c2c(=O)[nH]1 [Zaprinast]
- Ranking score [2, 3]: 188.481
- B-score functional assay [2, 4]: -1.838

Compound: CN(C)C/C=C(\c1ccc(Br)cc1)c1cccnc1.Cl.Cl.O [Zimelidine dihydrochloride monohydrate]
- Ranking score [2, 3]: 266.786
- B-score functional assay [2, 4]: -1.216

Compound: Cc1cc(CC(=O)[O-])n(C)c1C(=O)c1ccc(Cl)cc1.[Na+] [Zomepirac sodium salt]
- Ranking score [2, 5]: 527.712
- B-score functional assay [2, 4]: -0.802

Compound: CN1CCN(C(=O)OC2c3nccnc3C(=O)N2c2ccc(Cl)cn2)CC1 (centres unmarked) [Zopiclone]
- Ranking score [2, 3]: 176.746
- B-score functional assay [2, 4]: -0.919

Compound: Cl.Cl.OCCN1CCN(CC/C=C2/c3ccccc3Sc3ccc(Cl)cc32)CC1 [Zuclopenthixol dihydrochloride]
- Ranking score [2, 3]: 243.28
- B-score functional assay [2, 4]: -0.306

Compound: C[C@H](CCC(=O)O)[C@H]1CC[C@H]2[C@@H]3[C@H](O)C[C@@H]4C[C@H](O)CC[C@]4(C)[C@H]3CC[C@]12C [chenodeoxycholic acid]
- position among the hits of the screen (combined ranking of both screening assays) [2]: ≤ 150

Compound: O=C1[C@H](CC[C@H](O)c2ccc(F)cc2)[C@@H](c2ccc(O)cc2)N1c1ccc(F)cc1 [ezetimibe, reference compound]
- NTCP inhibition in the screen (in words) ([2]; 10 µM, both screening assays): confirmed NTCP inhibition
- position among the hits of the screen (combined ranking of both screening assays) [2]: ≤ 150
- Ranking score [2, 3]: 30.4959
- B-score functional assay [2, 4]: -4.28

Compound: C[C@H](CCC(=O)O)[C@H]1CC[C@H]2[C@@H]3CC[C@@H]4C[C@H](O)CC[C@]4(C)[C@H]3CC[C@]12C [litocholic acid]
- position among the hits of the screen (combined ranking of both screening assays) [2]: ≤ 150

Compound: C[C@H](CCC(=O)O)[C@H]1CC[C@H]2[C@@H]3[C@@H](O)C[C@@H]4C[C@H](O)CC[C@]4(C)[C@H]3CC[C@]12C [ursodeoxycholic acid, reference compound]
- position among the hits of the screen (combined ranking of both screening assays) [2]: ≤ 150
- position among the hits of the screen (combined ranking of both screening assays) ([2]; listed as Ursodeoxycholic acid): ≤ 100

Compound: (S)-(-)-Cycloserine
- Ranking score [2, 3]: 89.398
- B-score functional assay [2, 4]: -1.227

Compound: Colistin sulfate
- B-score functional assay [2, 4]: -0.917

Compound: R(-) Apomorphine hydrochloride hemihydrate
- Ranking score [2, 5]: 1173.62
- B-score functional assay ([2]; screening taurocholate uptake, 10 µM drug, B-score): 2.876

Compound: Verteporfin
- Ranking score [2, 3]: 33.9116
- B-score functional assay [2, 4]: -2.252
